{
  "source": "patent US5393742A",
  "about": "“Preparation for treating renal disease” (MECT Corporation, priority 1990, dated 1995)",
  "key": {"[1]": {"tested_on": "Puromycin aminonucleoside (PAN) induced nephritis", "format": "in vivo, Male Sprague-Dawley (SD) rats", "description": "Effect on Puromycin aminonucleoside (PAN) induced nephritis, i.e. PAN induced nephrosis or nephrotic syndrome:\nMale Sprague-Dawley (SD) rats weighing 160-180 g were used.\nAs the nephritis, i.e. nephrosis or nephrotic syndrome, causing substance, PAN (made by Sigma Co., Ltd.) was used. As the test compound, sodium N-acetylneuraminate (made by MECT Corporation) was used.\nPAN was intraperitoneally administered in an amount of 80 mg per 1 kg of body weight to rats to cause nephritis, i.e. nephrosis or nephrotic syndrome. Then, the test compound (Groups I, II or III) or physiological saline solution (Group IV) was intraperitoneally administered 3 times a day (morning, noon and evening) for 14 consecutive days immediately after treatment with PAN as follows. As a positive control, methylprednisolone was subcutaneously administered to rats of Group V once a day (noon) for 14 consecutive days immediately after treatment with PAN. Moreover, 3, 6, 9 and 13 days after treatment with PAN, 5 ml water was loaded, and the urine was collected for 6 hours. Fourteen days after treatment with PAN, autopsies were made, the kidneys were extirpated and their moist weights were measured.\nGroup I: 0.1 mg Sodium N-acetylneuraminate per 1 kg of body weight was administered.\nGroup II: 0.5 mg Sodium N-acetylneuraminate per 1 kg of body weight was administered.\nGroup III: 1.0 mg Sodium N-acetylneuraminate per 1 kg of body weight was administered.\nGroup IV: 2.5 ml Physiological saline solution per 1 kg of body weight was administered.\nGroup V: 2 mg Methylprednisolone per 1 kg of body weight was administered.\nGroup VI: Normal rats (no drug was given).\nRegarding the results of therapeutic effect for treating renal disease (nephrotic syndrome) of the given NANA compound per Example 1 above, it will be appreciated that the test compound sodium N-acetylneuraminate (Groups I, II and III) was dissolved in physiological saline and intraperitoneally administered, compared to intraperitoneal administration of physiological saline alone (Group IV) and subcutaneous administration of methylprednisolone (Group V)."}, "[2]": {"tested_on": "cilium cells from the human airway and cilia of frog palatine mucosa", "settings": "expectorant, by inhalation; cited from earlier work"}, "[3]": {"settings": "cited from earlier work"}, "[4]": {"tested_on": "rat GEC", "settings": "cited from earlier work"}, "[5]": {"settings": "2.0 mg/kg s.c., once a day, 14 days after PAN, positive control"}},
  "note": "Where two headings read alike, the source gives them in different places.",
  "data": [
    {"smiles": "C[C@H]1C[C@@H]2[C@H]([C@@H](O)C[C@@]3(C)[C@H]2CC[C@]3(O)C(=O)CO)[C@@]2(C)C=CC(=O)C=C12", "note": "[Methylprednisolone, methylprednisolone, reference compound]", "values": [
      {"measurement": "Kidney Moist Weight", "setting": "[1]; [5]", "result": "0.43 ± 0.01", "unit": "g/100 g"},
      {"measurement": "Weight Gain Rate", "setting": "[1]; [5]", "result": "107.7 ± 1.6", "unit": "%"},
      {"measurement": "Urinary Protein Content", "setting": "[1]; 3rd Day, 2.0 mg/kg s.c., once a day", "result": "22.3 ± 2.1", "unit": "mg/24 hours"},
      {"measurement": "Urinary Protein Content", "setting": "[1]; 6th Day, 2.0 mg/kg s.c., once a day", "result": "55.8 ± 11.4", "unit": "mg/24 hours"},
      {"measurement": "Urinary Protein Content", "setting": "[1]; 9th Day, 2.0 mg/kg s.c., once a day", "result": "68.7 ± 13.1", "unit": "mg/24 hours"},
      {"measurement": "Urinary Protein Content", "setting": "[1]; 13th Day, 2.0 mg/kg s.c., once a day", "result": "56.1 ± 12.5", "unit": "mg/24 hours"},
      {"measurement": "Effect on weight gain (in words)", "setting": "[1]; PAN rats, 14 days", "result": "greater inhibition of weight gain"},
      {"measurement": "Effect on increase in urinary protein content (in words)", "setting": "[1]; PAN rats, 6th, 9th and 13th day", "result": "inhibits increase in urinary protein content"},
      {"measurement": "Systemic side effect (in words)", "setting": "[1]; rat, in vivo", "result": "greater systemic side effect"}
    ]},
    {"smiles": "CC(=O)N[C@H]1[C@H]([C@H](O)[C@H](O)CO)OC(O)(C(=O)O)C[C@@H]1O", "note": "(stereo partly shown) [N-acetylneuraminic acid]", "values": [
      {"measurement": "Effect on ciliary motion in the airway", "setting": "[2]", "result": "directly promotes ciliary motion in the airway"},
      {"measurement": "Effect on renal disease, nephrosis or nephrotic syndrome (in words)", "setting": "[1]; PAN-induced nephritis", "result": "has an inhibitory effect on nephritis"},
      {"measurement": "anti vital action", "setting": "[3]; article [1]", "result": "anti vital action"},
      {"measurement": "anti allergic action", "setting": "[3]; article [4], guinea pigs", "result": "anti allergic action"},
      {"measurement": "anti inflammatory action", "setting": "[3]; articles [2], [3]", "result": "anti inflammatory action"}
    ]},
    {"smiles": "CN(C)c1ncnc2c1ncn2[C@@H]1O[C@H](CO)[C@@H](N)[C@H]1O", "note": "[PAN, puromycin aminonucleoside]", "values": [
      {"measurement": "Effect on heparan sulfate proteoglycan (HSPG)", "setting": "[4]", "result": "reduces heparan sulfate proteoglycan (HSPG)"}
    ]},
    {"smiles": "C[C@]12C=CC(=O)C=C1CC[C@@H]1[C@@H]2[C@@H](O)C[C@@]2(C)[C@H]1CC[C@]2(O)C(=O)CO", "note": "[prednisolone, reference compound]", "values": [
      {"measurement": "Effect on increase of kidney moist weight (in words)", "setting": "[1]; PAN rats, 14 days", "result": "inhibits increase in kidney moist weight"}
    ]}
  ]
}
